Measurements reported in publication doi:10.1101/854513v2 (biorxiv, 2020).
Residue numbers refer to the chain shown, from its start. Where two headings read alike, the source gives them in different places.

Assays:
hM3Dq [1] = biological target: T1, hM3Dq (Homo sapiens, UniProt P20309, A239G/Y149C); experiment: biochemical; format: binding
hM3 = hM3 (Homo sapiens, UniProt P20309); experiment: biochemical; format: binding
hM4Di [2] = biological target: T2, hM4Di (Homo sapiens, UniProt P08173, A203G/Y113C); experiment: BRET G protein dissociation; format: cell-based
T2 sequence (P08173 1-479 Y113C/A203G): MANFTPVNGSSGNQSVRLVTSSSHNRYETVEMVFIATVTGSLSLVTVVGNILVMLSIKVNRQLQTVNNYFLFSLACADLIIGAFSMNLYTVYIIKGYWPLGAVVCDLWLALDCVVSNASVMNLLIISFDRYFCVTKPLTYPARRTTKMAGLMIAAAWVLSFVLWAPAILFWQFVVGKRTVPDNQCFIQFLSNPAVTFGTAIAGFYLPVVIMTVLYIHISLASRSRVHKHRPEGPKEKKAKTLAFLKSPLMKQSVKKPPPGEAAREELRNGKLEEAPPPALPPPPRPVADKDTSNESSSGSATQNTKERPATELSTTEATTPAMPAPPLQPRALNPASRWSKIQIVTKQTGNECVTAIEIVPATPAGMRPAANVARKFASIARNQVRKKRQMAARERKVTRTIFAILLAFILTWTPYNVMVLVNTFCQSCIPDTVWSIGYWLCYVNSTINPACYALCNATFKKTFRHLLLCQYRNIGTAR

hM3Dq [3] = biological target: T1, hM3Dq; experiment: cell-based
hM4 = biological target: T3, hM4 (Homo sapiens, UniProt P08173); experiment: [3H]QNB competition binding
T3 sequence (P08173 1-479): T2 sequence (P08173 1-479 Y113C/A203G) with C113Y, G203A

hM4Di [4] = biological target: T2, hM4Di; experiment: [3H]QNB competition binding
hM5 = biological target: T4, hM5 (Homo sapiens, UniProt P08912); experiment: radioligand competition binding
T4 sequence (P08912 1-532): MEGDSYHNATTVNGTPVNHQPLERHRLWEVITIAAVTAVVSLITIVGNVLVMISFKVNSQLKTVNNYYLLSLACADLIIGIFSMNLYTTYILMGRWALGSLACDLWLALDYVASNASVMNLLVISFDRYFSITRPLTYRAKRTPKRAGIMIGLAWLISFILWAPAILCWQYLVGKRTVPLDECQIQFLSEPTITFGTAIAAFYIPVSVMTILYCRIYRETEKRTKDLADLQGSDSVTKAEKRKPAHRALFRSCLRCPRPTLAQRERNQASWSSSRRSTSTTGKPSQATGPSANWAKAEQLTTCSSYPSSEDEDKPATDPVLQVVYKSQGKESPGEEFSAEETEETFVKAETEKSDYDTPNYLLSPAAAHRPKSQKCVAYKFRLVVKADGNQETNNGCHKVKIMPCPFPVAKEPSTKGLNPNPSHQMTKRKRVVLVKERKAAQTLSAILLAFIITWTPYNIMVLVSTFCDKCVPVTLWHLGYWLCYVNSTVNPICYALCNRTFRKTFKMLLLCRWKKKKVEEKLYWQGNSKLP

hM1 = biological target: T5, hM1 (Homo sapiens, UniProt P11229); experiment: radioligand competition binding
T5 sequence (P11229 1-460): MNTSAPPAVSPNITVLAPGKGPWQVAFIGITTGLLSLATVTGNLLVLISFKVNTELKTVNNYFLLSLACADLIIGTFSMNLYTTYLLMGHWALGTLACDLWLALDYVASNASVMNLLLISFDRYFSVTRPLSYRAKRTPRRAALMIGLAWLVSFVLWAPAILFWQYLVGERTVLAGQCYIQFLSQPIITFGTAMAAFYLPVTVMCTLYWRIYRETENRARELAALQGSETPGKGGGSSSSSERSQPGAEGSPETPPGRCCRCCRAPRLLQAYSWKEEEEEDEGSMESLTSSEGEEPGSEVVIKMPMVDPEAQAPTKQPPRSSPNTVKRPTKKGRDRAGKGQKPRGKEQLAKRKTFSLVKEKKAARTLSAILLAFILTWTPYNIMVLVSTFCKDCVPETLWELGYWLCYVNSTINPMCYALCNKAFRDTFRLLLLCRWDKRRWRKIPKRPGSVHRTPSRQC

hM3, sequence (P20309 whole entry): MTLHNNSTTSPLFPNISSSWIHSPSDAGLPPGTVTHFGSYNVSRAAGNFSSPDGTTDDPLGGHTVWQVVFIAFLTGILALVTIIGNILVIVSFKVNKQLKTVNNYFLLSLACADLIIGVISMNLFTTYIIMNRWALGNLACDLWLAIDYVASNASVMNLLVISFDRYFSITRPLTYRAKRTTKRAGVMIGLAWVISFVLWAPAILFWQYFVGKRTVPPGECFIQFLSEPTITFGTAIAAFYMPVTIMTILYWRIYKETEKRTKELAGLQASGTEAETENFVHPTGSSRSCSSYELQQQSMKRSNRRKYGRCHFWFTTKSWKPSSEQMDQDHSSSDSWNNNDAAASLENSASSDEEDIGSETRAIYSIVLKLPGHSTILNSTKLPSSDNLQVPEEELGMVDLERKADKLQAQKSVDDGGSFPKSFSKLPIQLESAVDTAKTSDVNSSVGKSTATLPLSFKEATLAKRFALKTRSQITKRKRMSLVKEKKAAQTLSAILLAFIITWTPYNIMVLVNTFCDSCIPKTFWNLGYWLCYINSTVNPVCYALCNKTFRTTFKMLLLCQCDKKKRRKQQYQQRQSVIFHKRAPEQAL
T1 sequence (P20309 whole entry Y149C/A239G): as the sequence (P20309 whole entry) above, with Y149C, A239G counted along it

Compound	Ki (hM3Dq [1]) [nM]	Ki (hM3; HEK293T, [3H]QNB […]) [nM]	EC50 (hM4Di [2]) [nM]	EC50 (hM3Dq [3]) [nM]	Ki (hM3) [nM]	Ki (hM4) [nM]	Ki (hM4Di [4]) [nM]	Ki (hM5) [nM]	Ki (hM1) [nM]
c1ccc2c(c1)N=C(N1CCNCC1)c1ccccc1N2 [C21]	850	270	2.6	5.2					
C[N+]1([O-])CCN(C2=Nc3cc(Cl)ccc3Nc3ccccc32)CC1 [CNO]	680		7.3	15	2600	3700	360		
CN1CCN(C2=Nc3ccccc3Nc3ccccc32)CC1 [DCZ, 11-(4-methyl-1-piperazinyl)-5H-dibenzo(b,e)(1,4)diazepine]	6.3		0.081	0.13	230	210	4.2	55	83
